Source: patent publication US12606541B2, “PPARg modulators and methods of use” (Eisai R&D Management Co., Ltd., priority 2020, dated 2026)

What follows are compounds tested against T1, His6-TEV-PPARγ-(234-505) (Homo sapiens, UniProt P37231) (assay: TR-FRET Assay to Measure Co-R Peptide Recruitment to PPARγ). Conditions: Co-R peptide (SMRT-ID2) recruitment; top final concentration 20 μM; read-out: TR-FRET i-Ag; AC50.
T1 construct: The His6-TEV-PPARγ-(234-505) protein for assay was expressed and purified; TEV cleavage site (N); made in house
T1 sequence (P37231 234-505): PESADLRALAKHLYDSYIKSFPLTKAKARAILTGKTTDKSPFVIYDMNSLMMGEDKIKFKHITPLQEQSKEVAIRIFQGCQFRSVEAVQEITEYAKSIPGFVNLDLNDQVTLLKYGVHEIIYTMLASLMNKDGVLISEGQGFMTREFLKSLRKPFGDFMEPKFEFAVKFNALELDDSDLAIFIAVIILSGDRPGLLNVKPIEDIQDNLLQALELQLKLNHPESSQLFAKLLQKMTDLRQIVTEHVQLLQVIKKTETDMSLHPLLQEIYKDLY
Type: biochemical
Procedure: TR-FRET Assay to Measure Co—R Peptide Recruitment to PPARγ
The 2× detection solution contained anti-6×His-Terbium antibody (CisBio) and FITC labeled Co—R peptide (SMRT-ID2 from New England Peptide) at final concentrations of 5 and 200 nM respectively.
In these assay plates, the positive control in column 24 contained 500 nM (final) T0070907 and the negative control in column 23 contained an identical volume of DMSO. Then, 5 μL of 2+ protein working stock or controls were added to the plate and incubated for 20 minutes at room temperature. Reagents additions were performed with either a Combi (Thermo) or Mantis (Formulatory) pipetting device. The incubation was followed by addition of 5 μL of the 2× detection solution. Plates were covered, centrifuged, and incubated for an additional hour. The TR-FRET data was recorded with an Envision plate reader (Perkin Elmer), using settings recommended by Thermo Fisher. The TR-FRET signal of the positive and negative control's recruitment of FITC-Co—R peptide was used to normalize the TR-FRET signal to percent response and to determine the assay Z prime. Experiments were performed in triplicate and analyzed in GraphPad Prism 7.

AC50 [nM] | Structure (SMILES)
342 | COc1cc(-c2cc(C(=O)N3CCC(C(=O)N[C@H]4CC[C@@H](C)CC4)CC3)n[nH]2)ccn1 [Example 107, 1-(5-(2-methoxypyridin-4-yl)-1H-pyrazole-3-carbonyl)-N-((1s,4s)-4-methylcyclohexyl)piperidine-4-carboxamide]

Same assay, conditions: Co-R peptide recruitment to PPARγ; read-out: TR-FRET AC50

AC50 [nM] | Structure (SMILES)
> 1000 | O=C(NC1CCC(c2ccccc2)CC1)C1CCN(C(=O)c2cc(-c3cccnc3)[nH]n2)CC1 (centres unmarked) [N-(4-phenylcyclohexyl)-1-[5-(pyridin-3-yl)-1H-pyrazole-3-carbonyl]piperidine-4-carboxamide]
> 1000 | COc1cc(-c2cc(C(=O)N3CCC(C(=O)NCc4ccc5[nH]ncc5c4)CC3)n[nH]2)c(Cl)cn1 [1-[5-(5-chloro-2-methoxypyridin-4-yl)-1H-pyrazole-3-carbonyl]-N-[(1H-indazol-5-yl)methyl]piperidine-4-carboxamide]
> 1000 | COc1cc(-c2cc(C(=O)N3CCC(C(=O)N(C)C4CCC(C)CC4)CC3)n[nH]2)c(Cl)cn1 (centres unmarked) [1-[5-(5-chloro-2-methoxypyridin-4-yl)-1H-pyrazole-3-carbonyl]-N-methyl-N-(4-methylcyclohexyl)piperidine-4-carboxamide]
> 1000 | Cc1cc(CNC(=O)C2CCN(C(=O)c3cc(-c4ccncc4)[nH]n3)CC2)ccn1 [N-[(2-methylpyridin-4-yl)methyl]-1-[5-(pyridin-4-yl)-1H-pyrazole-3-carbonyl]piperidine-4-carboxamide]
> 1000 | O=C(NCc1ccccc1)C1CCN(C(=O)c2cc(-c3ccncc3)[nH]n2)CC1 [N-benzyl-1-[5-(pyridin-4-yl)-1H-pyrazole-3-carbonyl]piperidine-4-carboxamide]
> 1000 | COc1cc(-c2cc(C(=O)N3CCC(C(=O)NCc4cc(C)ccn4)CC3)n[nH]2)c(Cl)cn1 [1-[5-(5-chloro-2-methoxypyridin-4-yl)-1H-pyrazole-3-carbonyl]-N-[(4-methylpyridine-2-yl)methyl]piperidine-4-carboxamide]
> 1000 | Cc1cccc(CNC(=O)C2CCCN(C(=O)c3cc(-c4ccncc4)[nH]n3)C2)c1 (centres unmarked) [N-[(3-methylphenyl)methyl]-1-[5-(pyridin-4-yl)-1H-pyrazole-3-carbonyl]piperidine-3-carboxamide]
> 1000 | O=C(N[C@@H]1CCN(Cc2ccccc2)C1)C1CCN(C(=O)c2cc(-c3cccnc3)[nH]n2)CC1 [N-[(3R)-1-benzylpyrrolidin-3-yl]-1-[5-(pyridin-3-yl)-1H-pyrazole-3-carbonyl]piperidine-4-carboxamide]
> 1000 | CN(Cc1ccc(C(C)(C)C)cc1)C(=O)C1CCN(C(=O)c2cc(-c3ccncc3)[nH]n2)CC1 [N-[(4-tert-butylphenyl)methyl]-N-methyl-1-[5-(pyridin-4-yl)-1H-pyrazole-3-carbonyl]piperidine-4-carboxamide]
> 1000 | COc1cc(-c2cc(C(=O)N3CCC(C(=O)NCc4nccc(=O)[nH]4)CC3)n[nH]2)c(Cl)cn1 [1-[5-(5-chloro-2-methoxypyridin-4-yl)-1H-pyrazole-3-carbonyl]-N-[(6-oxo-1,6-dihydropyrimidin-2-yl)methyl]piperidine-4-carboxamide]
> 1000 | O=C(Nc1ccc(Cl)cc1)C1CCN(C(=O)c2cc(-c3ccncc3)[nH]n2)CC1 [N-(4-chlorophenyl)-1-[5-(pyridin-4-yl)-1H-pyrazole-3-carbonyl]piperidine-4-carboxamide]
> 1000 | COc1cc(-c2cc(C(=O)N3CCC(C(=O)NCc4cccnn4)CC3)n[nH]2)c(Cl)cn1 [1-[5-(5-chloro-2-methoxypyridin-4-yl)-1H-pyrazole-3-carbonyl]-N-[(pyridazin-3-yl)methyl]piperidine-4-carboxamide]
> 1000 | COc1cc(-c2cc(C(=O)N3CCC(C(=O)N[C@H]4CC[C@H](C)CC4)CC3)n[nH]2)ccn1
> 1000 | COc1ccc(C)cc1CNC(=O)C1CCN(C(=O)c2cc(-c3ccncc3)[nH]n2)CC1 [N-[(2-methoxy-5-methylphenyl)methyl]-1-[5-(pyridin-4-yl)-1H-pyrazole-3-carbonyl]piperidine-4-carboxamide]
> 1000 | CNc1cc(-c2cc(C(=O)N3CCC(C(=O)NC4CCC(C)CC4)CC3)n[nH]2)ccn1 (centres unmarked) [1-{5-[2-(methylamino)pyridin-4-yl]-1H-pyrazole-3-carbonyl}-N-(4-methylcyclohexyl)piperidine-4-carboxamide]
> 1000 | O=C(NCc1ccccc1Cl)C1CCN(C(=O)c2cc(-c3ccncc3)[nH]n2)CC1 [N-[(2-chlorophenyl)methyl]-1-[5-(pyridin-4-yl)-1H-pyrazole-3-carbonyl]piperidine-4-carboxamide]
> 1000 | CC1CCC(NC(=O)C2CCN(C(=O)c3cc(-c4ccnc(OC5CC5)c4)[nH]n3)CC2)CC1 (centres unmarked) [1-[5-(2-cyclopropoxypyridin-4-yl)-1H-pyrazole-3-carbonyl]-N-(4-methylcyclohexyl)piperidine-4-carboxamide]
> 1000 | COc1cc(-c2cc(C(=O)N3CCC(C(=O)NCc4cc(F)cc(C(F)(F)F)c4)CC3)n[nH]2)c(Cl)cn1 [1-[5-(5-chloro-2-methoxypyridin-4-yl)-1H-pyrazole-3-carbonyl]-N-{[3-fluoro-5-(trifluoromethyl)phenyl]methyl}piperidine-4-carboxamide]
> 1000 | COc1ccc(Cl)cc1CNC(=O)C1CCN(C(=O)c2cc(-c3ccncc3)[nH]n2)CC1 [N-[(5-chloro-2-methoxyphenyl)methyl]-1-[5-(pyridin-4-yl)-1H-pyrazole-3-carbonyl]piperidine-4-carboxamide]
> 1000 | COc1cc(-c2cc(C(=O)N3CCC4(C(=O)NCc5cccc(Cl)c5)CC34)n[nH]2)c(Cl)cn1 (centres unmarked) [2-[5-(5-chloro-2-methoxypyridin-4-yl)-1H-pyrazole-3-carbonyl]-N-[(3-chlorophenyl)methyl]-2-azabicyclo[3.1.0]hexane-5-carboxamide]
> 1000 | C[C@H](CNC(=O)C1CCN(C(=O)c2cc(-c3ccncc3)[nH]n2)CC1)c1ccccc1 [N-[(2S)-2-phenylpropyl]-1-[5-(pyridin-4-yl)-1H-pyrazole-3-carbonyl]piperidine-4-carboxamide]
> 1000 | O=C(NCc1nc(C2CC2)cs1)C1CCN(C(=O)c2cc(-c3ccncc3)[nH]n2)CC1 [N-[(4-cyclopropyl-1,3-thiazol-2-yl)methyl]-1-[5-(pyridin-4-yl)-1H-pyrazole-3-carbonyl]piperidine-4-carboxamide]
> 1000 | Cn1cc(CNC(=O)C2CCN(C(=O)c3cc(-c4ccncc4)[nH]n3)CC2)cn1 [N-[(1-methyl-1H-pyrazol-4-yl)methyl]-1-[5-(pyridin-4-yl)-1H-pyrazole-3-carbonyl]piperidine-4-carboxamide]
> 1000 | C[C@@H](NC(=O)C1CCN(C(=O)c2cc(-c3ccncc3)[nH]n2)CC1)c1ccc(C(C)(C)C)cc1 [N-[(1R)-1-(4-tert-butylphenyl)ethyl]-1-[5-(pyridin-4-yl)-1H-pyrazole-3-carbonyl]piperidine-4-carboxamide]
> 1000 | CC1CCC(NC(=O)C2CCN(C(=O)c3cc(-c4ccnc(N5CCCC5)c4)[nH]n3)CC2)CC1 (centres unmarked) [N-(4-methylcyclohexyl)-1-{5-[2-(pyrrolidin-1-yl)pyridin-4-yl]-1H-pyrazole-3-carbonyl}piperidine-4-carboxamide]
> 1000 | Cc1cccc(C)c1NC(=O)C1CCN(C(=O)c2cc(-c3ccncc3)[nH]n2)CC1 [N-(2,6-dimethylphenyl)-1-[5-(pyridin-4-yl)-1H-pyrazole-3-carbonyl]piperidine-4-carboxamide]
> 1000 | COc1cc(-c2cc(C(=O)N3CCC(C(=O)Nc4ncc(C(C)C)s4)CC3)n[nH]2)c(Cl)cn1 [1-[5-(5-chloro-2-methoxypyridin-4-yl)-1H-pyrazole-3-carbonyl]-N-[5-(propan-2-yl)-1,3-thiazol-2-yl]piperidine-4-carboxamide]
> 1000 | Cc1nc(CNC(=O)C2CCN(C(=O)c3cc(-c4ccncc4)[nH]n3)CC2)no1 [N-[(5-methyl-1,2,4-oxadiazol-3-yl)methyl]-1-[5-(pyridin-4-yl)-1H-pyrazole-3-carbonyl]piperidine-4-carboxamide]
> 1000 | COc1cc(-c2cc(C(=O)N3CCC(C(=O)NCC4CCOCO4)CC3)n[nH]2)c(Cl)cn1 (centres unmarked) [1-[5-(5-chloro-2-methoxypyridin-4-yl)-1H-pyrazole-3-carbonyl]-N-[(1,3-dioxan-4-yl)methyl]piperidine-4-carboxamide]
> 1000 | COc1cc(-c2cc(C(=O)N3CCC(C(=O)NCc4nc5cccnc5[nH]4)CC3)n[nH]2)c(Cl)cn1 [1-[5-(5-chloro-2-methoxypyridin-4-yl)-1H-pyrazole-3-carbonyl]-N-({3H-imidazo[4,5-b]pyridin-2-yl}methyl)piperidine-4-carboxamide]

Structure (SMILES) | AC50 [nM]
COc1cc(-c2cc(C(=O)N3C[C@H]4C[C@@H]3CC4C(=O)N[C@H]3CC[C@@](O)(C(F)(F)F)CC3)n[nH]2)c(F)cn1 (single isomer, unassigned) | > 1000
